PubChem BioAssay (NCI)
Several values for one entry are separate records, joined by “and”; a condition that tells them apart may be missing. Identical values can stand only once.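 Assay format: 96-well plates, 48-hour exposure. GI50 marks 50% less growth. TGI denotes the concentration required for complete inhibition of growth.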

Columns and labels:
Assay in all cases: NCI tumour cell line growth inhibition, 48 h
DU-145 prostate = test system: DU-145 prostate
M14 melanoma = test system: M14 melanoma
NCI/ADR-RES ovarian = test system: NCI/ADR-RES ovarian
SF-539 CNS = test system: SF-539 CNS
MDA-MB-231 breast = test system: MDA-MB-231 breast
SF-295 CNS = test system: SF-295 CNS
SNB-75 CNS = test system: SNB-75 CNS
SF-268 CNS = test system: SF-268 CNS
TK-10 renal = test system: TK-10 renal
OVCAR-4 ovarian = test system: OVCAR-4 ovarian

| Compound | TGI (DU-145 prostate) | TGI (M14 melanoma) | TGI (NCI/ADR-RES ovarian) | TGI (SF-539 CNS) | TGI (MDA-MB-231 breast) | TGI (SF-295 CNS) | TGI (SNB-75 CNS) | TGI (SF-268 CNS) | TGI (TK-10 renal) | TGI (OVCAR-4 ovarian) | GI50 (DU-145 prostate) | GI50 (M14 melanoma) | GI50 (NCI/ADR-RES ovarian) | GI50 (SF-539 CNS) | GI50 (OVCAR-4 ovarian) | GI50 (SF-295 CNS) | GI50 (SNB-75 CNS) | GI50 (SF-268 CNS) | GI50 (TK-10 renal) |
| --- | --- | --- | --- | --- | --- | --- | --- | --- | --- | --- | --- | --- | --- | --- | --- | --- | --- | --- | --- |
| Cc1ccc(NC(=S)Nc2c(C)n(C)n(-c3ccccc3)c2=O)cc1 | > 100 µM | > 100 µM | > 100 µM | > 100 µM | > 100 µM | > 100 µM | > 100 µM | > 100 µM | > 100 µM |  |  |  |  |  |  |  |  |  |  |
| Cn1c(-c2ccc[se]2)ccc1-c1ccc(CO)[se]1 | > 78 µM | > 100 µM | 52.2 µM | > 100 µM | > 88.2 µM | > 100 µM | > 79.9 µM | > 100 µM |  | > 100 µM |  |  |  |  |  |  |  |  |  |
| COc1ccc(Oc2nc3ccc(C(F)(F)F)cc3nc2-c2ccccc2)cc1 | > 100 µM |  |  |  | > 100 µM | > 100 µM |  | > 100 µM | > 100 µM | > 100 µM |  |  |  |  |  |  |  |  |  |
| Cc1cc2ccccc2n1CC(=O)N1CCCC1 | > 100 µM | > 100 µM | > 100 µM | > 100 µM | > 100 µM |  | > 100 µM | > 100 µM | > 100 µM | > 100 µM |  |  |  |  |  |  |  |  |  |
| CC1CCc2c(sc3ncnc(N/N=C/c4ccc(Cl)c(Cl)c4)c23)C1 (stereo not drawn) |  | 30.2 µM |  | 60.6 µM |  | 43.2 µM | 61.6 µM | > 100 µM | > 100 µM |  |  |  |  |  |  |  |  |  |  |
| Fc1ccc(C2CC(c3cccc(Nc4ccncc4)c3)=NN2c2cc(Cl)cc(Cl)c2)cc1 (stereo not drawn) | 3.32 µM | 3.28 µM | 3.34 µM | 3.11 µM |  | 3.21 µM | 2.91 µM | 3.4 µM | 3.84 µM | 3.23 µM | 1.85 µM | 1.74 µM | 1.71 µM | 1.64 µM | 1.77 µM | 1.77 µM | 1.31 µM | 1.72 µM | 1.94 µM |
| CN(C)CCOC(=O)c1ccc(N)cc1 | > 100 µM | 34.8 µM | > 100 µM |  | 41.1 µM | > 100 µM |  | > 100 µM | > 100 µM | > 100 µM |  |  |  |  |  |  |  |  |  |
| CN(C)CCCNc1c2ccccc2nc2cccc([N+](=O)[O-])c12 | 0.0131 µM | 0.00165 µM | 0.186 µM | 0.00757 µM and 0.0252 µM | 0.00712 µM | 0.0167 µM and 0.0867 µM |  | 0.00943 µM and 0.0426 µM | 0.00909 µM and 0.0869 µM | < 0.001 µM |  |  |  |  |  | < 0.001 µM |  |  | 0.0203 µM |
| CC(=O)NC1=C(C)C(=O)c2c(nc3n2CCC3O)C1=O (stereo not drawn) |  | > 100 µM |  | 51.3 µM |  | > 100 µM | > 100 µM | > 83.3 µM | > 100 µM | 29.7 µM |  |  |  |  |  |  |  |  |  |
| Cc1cn(CC2=NCCCN2)c(=O)[nH]c1=O | > 100 µM | > 100 µM | > 100 µM |  | > 100 µM | > 100 µM | > 100 µM | > 100 µM | > 100 µM |  |  |  |  |  |  |  |  |  |  |
| O=C(Nc1c(Cl)cc([N+](=O)[O-])cc1Cl)C(=O)C1C(=O)NC(=S)NC1=O |  | > 100 µM | > 100 µM | > 100 µM | > 100 µM | > 100 µM | > 100 µM | > 100 µM | > 100 µM | > 100 µM |  |  |  |  |  |  |  |  |  |
| O=C(Nc1nnc(-c2ccccc2)o1)C(SC(=S)N1CCOCC1)c1ccccc1 (stereo not drawn) | > 100 µM | > 100 µM | 64.7 µM | > 100 µM | > 100 µM | > 100 µM | > 100 µM |  | > 100 µM | > 100 µM |  |  |  |  |  |  |  |  |  |
| COc1ccccc1NC(=S)N/N=C(/C)c1ccccn1 | > 100 µM | 2.54 µM |  | 14.9 µM | 7.46 µM | > 100 µM | 49.2 µM |  | 58.9 µM | > 100 µM |  |  |  |  |  |  |  |  |  |
| CCOC(=O)C(NC(=O)CC(C)C)(Nc1ccc(C(F)(F)F)cc1)C(F)(F)F (stereo not drawn) | > 100 µM | > 100 µM | > 100 µM | > 100 µM |  | > 100 µM | 60.9 µM | > 100 µM | > 100 µM | > 100 µM |  |  |  |  |  |  |  |  |  |
| O=C(NNc1cn[nH]c(=O)c1Cl)/C(=C/c1ccc2c(c1)OCO2)NC(=O)c1ccccc1 | > 100 µM | > 100 µM | > 100 µM | > 100 µM | > 100 µM | > 100 µM | 86.2 µM |  | > 100 µM | > 100 µM |  |  |  |  |  |  |  |  |  |
| Cc1ccc(C)c(COCCOCn2cc(Br)c(N)nc2=O)c1 | > 100 µM | > 100 µM | > 100 µM | > 100 µM | > 100 µM | > 100 µM | > 100 µM | > 100 µM | > 100 µM |  |  |  |  |  |  |  |  |  |  |
| CCCC(CC)c1c(O)c(O)c(C(CC)CCC)c(C(CC)CCC)c1C(CC)CCC (stereo not drawn) | > 10 µM | > 10 µM | > 10 µM | > 10 µM | > 10 µM | > 10 µM |  | > 10 µM | > 10 µM | > 10 µM |  |  |  |  |  |  |  |  |  |
| CCOC(=O)CCc1c(C(=O)OCC)[nH]c(/C=C2\NC(=O)C(C)=C2CC)c1C | 55.6 µM | > 100 µM | 32.4 µM | 69.6 µM | 52.6 µM | 41.3 µM | 27.8 µM | 92.1 µM |  | 59.4 µM |  |  |  |  |  |  |  |  |  |
| CC(C)(C)n1c(=O)n(C(=O)C(Cl)(Cl)Cl)n(C(=O)C(Cl)(Cl)Cl)c1=O | > 100 µM | > 100 µM | > 100 µM | > 100 µM | > 100 µM | > 100 µM |  | > 100 µM | > 100 µM | > 100 µM |  |  |  |  |  |  |  |  |  |
| CCNC(=O)/C=C/CCC#Cc1ccc(-c2ccc(-c3cccs3)s2)s1 |  | > 100 µM |  | > 100 µM |  | > 100 µM | > 100 µM | > 100 µM | > 100 µM | > 100 µM |  |  |  |  |  |  |  |  |  |
| CCOC(=O)c1c2c(n3ccc(NC(=O)OC(C)(C)C)cc13)C(=O)c1ncccc1C2=O | 1.66 µM | 1.26 µM |  | 0.549 µM |  | 1.13 µM | 1.72 µM | 1.91 µM | 3.39 µM | 3.22 µM | 0.0653 µM | 0.0445 µM |  | 0.118 µM | 0.291 µM | 0.272 µM | 0.167 µM | 0.0713 µM | 0.132 µM |
| COc1ccc(C(=C(I)c2ccccc2)c2ccc(OC)cc2)cc1 | > 100 µM | > 100 µM | > 100 µM | > 100 µM | > 100 µM | > 100 µM |  | > 100 µM | > 100 µM | > 100 µM |  |  |  |  |  |  |  |  |  |
